Experimental data reported in BindingDB's records for doi:10.1016/j.bioorg.2014.05.003 (Comsats Institute of Information Technology, 2014).

Target: Alpha-glucosidase MAL12 (Saccharomyces cerevisiae (strain ATCC 204508 / S288c), UniProt P53341)
Assay: Glucosidase assay
Details: pH 6.8; 37 °C
Procedure: Reaction mixture (100 µL) contained 70 µL 50 mM Na2HPO4 buffer, pH 6.8, 10 µL test compound (0.5 mM), followed by the addition of 10 µL enzyme (0.0234 units). The mixture was pre-incubated for 10 min at 37 °C and pre-read at 400 nm. The reaction was initiated by the addition of 10 µL of 0.5 mM substrate (p-nitrophenyl glucopyranoside) and incubated at 37 °C for 30 min. The absorbance of p-nitrophenol was measured at 400 nm.

Alpha-glucosidase MAL12, sequence (P53341 whole entry): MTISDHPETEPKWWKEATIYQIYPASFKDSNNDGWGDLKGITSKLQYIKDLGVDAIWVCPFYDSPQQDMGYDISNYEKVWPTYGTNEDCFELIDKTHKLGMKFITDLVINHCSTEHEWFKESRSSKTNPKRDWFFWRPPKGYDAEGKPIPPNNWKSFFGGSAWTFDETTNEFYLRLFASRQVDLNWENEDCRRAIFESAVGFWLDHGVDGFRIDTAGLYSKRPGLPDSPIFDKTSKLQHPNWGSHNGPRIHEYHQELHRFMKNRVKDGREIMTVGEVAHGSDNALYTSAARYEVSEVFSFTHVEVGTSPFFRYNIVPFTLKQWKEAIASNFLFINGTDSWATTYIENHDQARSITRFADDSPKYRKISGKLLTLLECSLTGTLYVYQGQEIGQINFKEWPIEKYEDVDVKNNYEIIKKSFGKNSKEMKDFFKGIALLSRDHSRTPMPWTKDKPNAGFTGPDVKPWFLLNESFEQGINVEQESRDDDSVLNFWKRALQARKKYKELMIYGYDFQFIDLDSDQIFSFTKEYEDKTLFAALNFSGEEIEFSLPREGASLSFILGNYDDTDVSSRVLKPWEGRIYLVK

SMILES	IC50 [µM]
CCOC(=O)[C@H]1[C@@H]2NC(=O)NC1(C)Oc1ccccc12 [(+-)2,6-Methano-4-oxo-3,4,5,6-tetrahydro-2H-[1,3,5]benzoxadiazocines (4d)]	122
CCOC(=O)C1C(C)=NC(=O)NC1c1ccc(Cl)cc1 (stereo unspecified) [Ethyl 4-(4-chlorophenyl)-6-methyl-2-oxo-1,2,3,4-tetrahydropyrimidine-5-carboxylate (4b)]	213
CCOC(=O)C1C(C)=NC(=O)NC1c1ccc(O)c(OC)c1 (stereo unspecified) [Ethyl 4-(4-hydroxy-3-methoxyphenyl)-6-methyl-2-oxo-1,2,3,4-tetrahydropyrimidine-5-carboxylate (4e)]	305
CCOC(=O)C1C(C)=NC(=S)NC1c1ccc(C)cc1 (stereo unspecified) [Ethyl 6-methyl-4-(4-methylphenyl)-2-thioxo-1,2,3,4-tetrahydropyrimidine-5-carboxylate (4l)]	125
CCOC(=O)C1C(C)=NC(=O)NC1c1ccccc1 (stereo unspecified) [Ethyl 6-methyl-2-oxo-4-phenyl-1,2,3,4-tetrahydropyrimidine-5-carboxylate (4a)]	143
CCOC(=O)C1C(C)=NC(=O)NC1c1ccc(C)cc1 (stereo unspecified) [Ethyl 6-methyl-4-(4-methylphenyl)-2-oxo-1,2,3,4-tetrahydropyrimidine-5-carboxylate (4f)]	112
